Experimental data as given in patent publication US8455399B2, “N-(4-perfluoroalkyl-phenyl)-4-triazolyl-benzamides as insecticides” (Syngenta Crop Protection LLC, priority 2009, dated 2013).

Key:
Type in all cases: in vivo
Spodoptera littoralis = Spodoptera littoralis (Egyptian cotton leafworm) leaf disc spray test; conditions: foliar, 72 h, 200 ppm sprayed on cotton leaf discs, 5 L1 larvae, mortality, feeding behavior, growth regulation 3 days after treatment
Excerpt: Spodoptera Littoralis (Egyptian Cotton Leafworm): Cotton leaf discs were placed on agar in a 24-well microtiter plate and sprayed with test solutions at an application rate of 200 ppm. After drying, the leaf discs were infested with 5 L1 larvae. The samples were checked for mortality, feeding behavior, and growth regulation 3 days after treatment (DAT).

Heliothis virescens = Heliothis virescens (tobacco budworm) egg/artificial diet test; conditions: 96 h, 200 ppm (concentration in well 18 ppm), eggs 0-24 h old on artificial diet, egg mortality, larval mortality, growth regulation after 4 days
Protocol: Heliothis Virescens (Tobacco Budworm): Eggs (0-24 h old) were placed in 24-well microtiter plate on artificial diet and treated with test solutions at an application rate of 200 ppm (concentration in well 18 ppm) by pipetting. After an incubation period of 4 days, samples were checked for egg mortality, larval mortality, and growth regulation.

Plutella xylostella = Plutella xylostella (diamond back moth) artificial diet test; conditions: 144 h, 200 ppm (concentration in well 18 ppm), L2 larvae, larval mortality and growth regulation after 6 days
Protocol: (§1) Plutella Xylostella (Diamond Back Moth): 24-well microtiter plate (MTP) with artificial diet was treated with test solutions at an application rate of 200 ppm (concentration in well 18 ppm) by pipetting. After drying, the MTP's were infested with L2 larvae (7-12 per well). After an incubation period of 6 days, samples were checked for larval mortality and growth regulation.

Diabrotica balteata = Diabrotica balteata (corn root worm) artificial diet test; conditions: 120 h, 200 ppm (concentration in well 18 ppm), L2 larvae, larval mortality and growth regulation after 5 days
Protocol: as §1, with “Diabrotica Balteata (Corn Root Worm): A” for “Plutella Xylostella (Diamond Back Moth):”, “(6-10” for “(7-12”, “5” for “6”

Thrips tabaci = Thrips tabaci (onion thrips) leaf disc spray test; conditions: foliar, 168 h, 200 ppm sprayed on sunflower leaf discs, population of mixed ages, mortality after 7 days
Protocol: Thrips Tabaci (Onion Thrips): Sunflower leaf discs were placed on agar in a 24-well microtiter plate and sprayed with test solutions at an application rate of 200 ppm. After drying, the leaf discs were infested with an […] population of mixed ages. After an incubation period of 7 days, samples were checked for mortality.

Tetranychus urticae = Tetranychus urticae (two-spotted spider mite) leaf disc spray test; conditions: foliar, 192 h, 200 ppm sprayed on bean leaf discs, mite populations of mixed ages, egg, larval and adult mortality 8 days later
Excerpt: Tetranychus Urticae (Two-Spotted Spider Mite): Bean leaf discs on agar in 24-well microtiter plates were sprayed with test solutions at an application rate of 200 ppm. After drying, the leaf discs are infested with mite populations of mixed ages. 8 days later, discs are checked for egg mortality, larval mortality, and adult mortality.

Measured: pest or weed control at 200 ppm

O=C(Nc1c(Br)cc(C(F)(C(F)(F)F)C(F)(F)C(F)(F)F)cc1Br)c1ccc(-n2cncn2)c([N+](=O)[O-])c1 (stereo not drawn) [A4, N-[2,6-dibromo-4-(1,2,2,3,3,3-hexafluoro-1-trifluoromethylpropyl)phenyl]-3-nitro-4-(1,2,4-triazol-1-yl)benzamide]
≥ 80%: all assays above
